# Assay results: publication PMC2408617, “Gametogenesis in Malaria Parasites Is Mediated by the cGMP-Dependent Protein Kinase” (PLoS Biology, 2008)
# Entries after “also recorded” stand apart in the source; their conditions may differ.
# How the values were obtained:
# [1] = test system: P. falciparum asexual blood stages; experiment: Asexual parasite growth inhibition, [3H]-hypoxanthine incorporation; assay type: cell-based, Plasmodium falciparum; conditions: unpublished data
# Description: Asexual parasite growth assays were carried out to obtain the IC50 of test compounds using inhibition of incorporation of [^3H]-hypoxanthine, and to compare growth rates between transfected clones. Briefly, in 96-well plates, each test well was dosed at early trophozoite stage with 10 μl of [^3H]-hypoxanthine (GE Healthcare) to a final concentration of 0.2 μCi. The radioactivity of the [^3H]-hypoxanthine incorporated into parasite nucleic acid over 24 h was determined relative to the WT controls using a Wallac 1450 Microbeta scintillation β-counter (Perkin-Elmer). This assay was done in triplicate and repeated at least three times.
# [2] = molecular target: T1, PfPKGT618Q (Plasmodium falciparum, UniProt Q8I719, T618Q); experiment: Recombinant PKG activity assay, T618Q mutant; assay type: biochemical
# T1 construct: The gene encoding full-length PfPKG was cloned into the pTrcHis expression plasmid (Invitrogen); His tag (from pTrcHis vector); made in house; host or cells: Escherichia coli
# Text: (§1) Figure 4 Substitution of a Key Active Site Threonine Residue Confers Compound 1 Insensitivity to Recombinant PfPKG (A) An alignment of regions of PfPKG in the ATP-binding pocket, thought to interact with compound 1, with those of other apicomplexans. Conserved active site residues highlighted in grey were predicted to approach compound 1 in a model of the Eimeria tenella PKG [29] (EtPKG). The threonine residue (T618), substituted in PfPKG in this study, is highlighted in grey and marked with an asterisk. Amino acid sequences are numbered to the right of the blocks of sequence. (B) Dose-response curves showing the effect of compound 1 on recombinant PKG enzyme activity assayed in the presence of 10 μM cGMP. Red diamonds indicate full-length WT PfPKG; black triangles, mutated PfPKG with T618 replaced by a glutamine residue; and blue squares, mutated PfPKG with T618 replaced by a methionine residue.
# (§2) The activity of recombinant and native PKG was measured using a modification of standard procedures. The gene encoding full-length PfPKG was cloned into the pTrcHis expression plasmid (Invitrogen). Substitution of specific amino acids of PfPKG was carried out using a QuickChange Multi Site-Directed Mutagenesis kit (Stratagene) according to the manufacturer's instructions. Expression, affinity purification of E. coli–expressed recombinant proteins, and PKG activity assays were performed as previously described. All experiments were performed at least twice in triplicate. PKG measurements in native P. falciparum proteins were performed using an adaptation of a previously described assay. Briefly, ring stage parasites were exposed to 0.15% saponin solution in PBS to free the parasites from their host cells. […] Radiolabelled peptide was detected on 96-well multiscreen phosphocellulose plates (MAPH-NOB; Millipore) by scintillation counting on a Wallac 1450 Microbeta scintillation β-counter (Perkin-Elmer). […]
# [3] = molecular target: T2, PfPKGT618M (Plasmodium falciparum, UniProt Q8I719, T618M); experiment: Recombinant PKG activity assay, T618M mutant; assay type: biochemical; conditions: versus WT
# T2 construct: The gene encoding full-length PfPKG was cloned into the pTrcHis expression plasmid (Invitrogen); His tag (from pTrcHis vector); made in house; host or cells: Escherichia coli
# Text: as §1
# The activity of recombinant and native PKG was measured using a modification of standard procedures. The gene encoding full-length PfPKG was cloned into the pTrcHis expression plasmid (Invitrogen). […] Radiolabelled peptide was detected on 96-well multiscreen phosphocellulose plates (MAPH-NOB; Millipore) by scintillation counting on a Wallac 1450 Microbeta scintillation β-counter (Perkin-Elmer). […]
# [4] = test system: P. falciparum gametocytes (WT / Pfrh3- control); experiment: Gametogenesis assay: rounding up, WT/control gametocytes; assay type: cell-based, Plasmodium falciparum
# Description: (§3) P. falciparum gametocytes were produced from the 3D7 clone in human A+ erythrocytes with 10% human serum (National Blood Service), and enriched using Nycodenz (Nycoprep 1.077; Axis-Shield) centrifugation as previously described. For gametogenesis, cells were resuspended at 5 × 10^6 parasites per millilitre and induced with either 20 μM XA or 25–400 μM zaprinast in complete medium, and a reduction (of >5 °C) in temperature. For gametogenesis assays, 10 min post induction, cells were mounted on a wet smear. […] Test reagents including zaprinast, BAPTA-AM, compound 1, and compound 2 were resuspended in DMSO as stock solutions and diluted in complete medium for gametogenesis assays, with the XA stock resuspended in RPMI 1640. The maximum final DMSO concentration in the gametogenesis medium was 0.4%, which was used as a negative control. […] Compound 1 and compound 2 were added at the point of activation with either XA or zaprinast, whereas cells were preincubated with 100 μM BAPTA-AM as previously described. Statistical multivariate analysis was carried out using Poisson regression (Stata 9.2; StataCorp) to compare the effects of genetic background (mutant vs. WT) and experimental replicate (included as categorical data in the analysis) on the rates of rounding up at individual drug concentrations. For each drug concentration, the mutants were tested separately against the WT control, and the resultant output was anti-logged to give the relative risk (and 95% confidence interval) for rounding up with genetic background.
# [5] = test system: PfPKGT618Q gametocytes; experiment: Gametogenesis assay: rounding up, PfPKGT618Q gametocytes; assay type: cell-based, Plasmodium falciparum; conditions: for RR, relative risk of rounding up, T618Q vs WT: Poisson regression
# Description: as §3
# (§4) Supplementary file pbio.0060139.st002.doc: Table S2 Poisson Regression Analysis for Compound 1 Sensitivity of Rounding Up of Both Mutants Compared to WT Each rounding-up measurement was made by counting 200 cells and scoring for rounding up (or not rounding up). At each compound 1 concentration, rounding-up replicate counts for both clones were compared to WT values separately by Poisson regression analysis using the Stata 9.2 package (StataCorp). Where n < 2 (indicated by n.d.), data were excluded from the analysis. Compound 1 concentration (comp1) is shown in micromolar. The p-values from this analysis and the relative risk (RR) of rounding up with genetic background (and 95% confidence intervals [CI]) are shown. (38 KB DOC) Click here for additional data file.
# [6] = test system: PfPKGT618M gametocytes; experiment: Gametogenesis assay: rounding up, PfPKGT618M gametocytes; assay type: cell-based, Plasmodium falciparum; conditions: for RR, relative risk of rounding up, T618M vs WT: Poisson regression
# Description: as §3, §4
# [7] = test system: P. falciparum gametocytes; experiment: Gametogenesis assay: exflagellation; assay type: cell-based, Plasmodium falciparum
# Description: as §3
# [8] = test system: cGMP-dependent kinase activity in P. falciparum lysates; experiment: Native cGMP-dependent kinase activity in cell lysates; assay type: biochemical, Plasmodium falciparum; conditions: control versus PfPKGT618Q lysates
# Description: as §2, with “cells. Both gametocyte and ring stage parasite pellets were lysed in HBS buffer (50 mM Hepes [pH 7.4], 1 mM EDTA, 1% Nonidet P-40, 10 mM NaF, 0.1 mM sodium orthovanadate, 1 mM dithiotreitol) supplemented with a 1/100 dilution of Sigma-Aldrich Protease Inhibitor Cocktail. Parasite lysis was confirmed by microscopic examination of Giemsa-stained thin smears.” for “cells.”
# [9] = test system: Eimeria; conditions: cited from earlier work
# [10] = test system: T. gondii; conditions: cited from earlier work
# [11] = test system: P. berghei; conditions: cited from earlier work
# [12] = 1–5 μM compound, XA stimulation
# T1 sequence (Q8I719 whole entry T618Q): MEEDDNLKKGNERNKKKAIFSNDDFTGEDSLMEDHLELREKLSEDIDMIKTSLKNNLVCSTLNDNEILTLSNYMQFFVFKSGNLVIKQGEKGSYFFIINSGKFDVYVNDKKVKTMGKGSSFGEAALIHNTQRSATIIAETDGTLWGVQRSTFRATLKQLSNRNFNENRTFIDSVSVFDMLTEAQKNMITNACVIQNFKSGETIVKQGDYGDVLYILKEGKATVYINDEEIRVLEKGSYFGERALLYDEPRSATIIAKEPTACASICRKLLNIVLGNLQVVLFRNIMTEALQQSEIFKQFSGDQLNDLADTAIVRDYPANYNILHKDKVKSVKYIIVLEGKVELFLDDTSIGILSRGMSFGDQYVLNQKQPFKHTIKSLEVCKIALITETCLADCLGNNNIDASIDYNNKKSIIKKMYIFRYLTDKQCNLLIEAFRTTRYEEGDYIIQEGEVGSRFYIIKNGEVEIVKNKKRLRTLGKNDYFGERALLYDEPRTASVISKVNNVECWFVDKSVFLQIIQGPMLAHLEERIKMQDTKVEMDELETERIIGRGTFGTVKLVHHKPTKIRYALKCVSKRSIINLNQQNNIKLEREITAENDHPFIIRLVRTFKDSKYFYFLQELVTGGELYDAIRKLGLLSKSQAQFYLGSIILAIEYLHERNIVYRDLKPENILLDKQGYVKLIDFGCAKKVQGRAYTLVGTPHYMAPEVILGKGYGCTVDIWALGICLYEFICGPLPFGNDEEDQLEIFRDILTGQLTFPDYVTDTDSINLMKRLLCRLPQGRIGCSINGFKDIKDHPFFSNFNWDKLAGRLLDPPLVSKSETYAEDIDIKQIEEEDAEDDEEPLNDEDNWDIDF
# T2 sequence (Q8I719 whole entry T618M): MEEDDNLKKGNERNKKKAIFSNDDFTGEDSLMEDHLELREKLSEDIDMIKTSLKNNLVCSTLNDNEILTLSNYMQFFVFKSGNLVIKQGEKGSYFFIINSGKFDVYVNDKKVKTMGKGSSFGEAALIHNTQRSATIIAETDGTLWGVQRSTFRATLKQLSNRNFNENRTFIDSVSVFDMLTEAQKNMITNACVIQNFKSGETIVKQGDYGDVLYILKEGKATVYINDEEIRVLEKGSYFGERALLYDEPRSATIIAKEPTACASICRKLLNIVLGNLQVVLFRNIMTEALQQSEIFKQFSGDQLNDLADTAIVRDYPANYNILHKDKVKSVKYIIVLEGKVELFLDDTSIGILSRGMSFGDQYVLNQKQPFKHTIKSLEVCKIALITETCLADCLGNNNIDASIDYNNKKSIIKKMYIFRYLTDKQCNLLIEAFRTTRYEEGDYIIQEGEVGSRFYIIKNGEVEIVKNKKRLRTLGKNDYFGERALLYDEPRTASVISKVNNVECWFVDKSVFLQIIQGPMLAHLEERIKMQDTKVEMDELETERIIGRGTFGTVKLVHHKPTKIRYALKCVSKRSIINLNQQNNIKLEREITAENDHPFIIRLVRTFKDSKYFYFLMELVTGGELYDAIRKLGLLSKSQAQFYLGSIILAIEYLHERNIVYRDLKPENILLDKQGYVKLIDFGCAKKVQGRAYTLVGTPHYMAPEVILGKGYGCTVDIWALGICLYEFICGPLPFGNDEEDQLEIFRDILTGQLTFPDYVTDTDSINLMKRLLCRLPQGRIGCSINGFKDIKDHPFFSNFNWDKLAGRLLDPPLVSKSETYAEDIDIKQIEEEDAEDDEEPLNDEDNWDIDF
smiles,measurement,setting,value
CN1CCC(c2cc(-c3ccncc3)c(-c3ccc(F)cc3)[nH]2)CC1 [compound 1],IC50,[1],2.7 ± 0.17 µM
same,IC50,"[2]; 10 μM cGMP, read-out: IC50, PfPKGT618Q recombinant enzyme",17.8 ± 4.7 µM
same,"less sensitive, PfPKGT618Q versus WT recombinant enzyme",[2]; ratio of IC50 values,"over 3,000 times"
same,decreased sensitivity conferred by T618Q in the recombinant protein,[2]; versus WT,"> 3,000 fold"
same,increase in sensitivity of T618M recombinant enzyme,[3],< 4 fold
same,gametocytes in which change of shape is prevented,[4],over 90%
same,rounding up of control gametocytes,[4]; [12],reduced rounding up to background levels
same,inhibition of rounding up,[4]; control gametocytes stimulated with XA (or zaprinast),inhibited by compound 1 in a dose-dependent manner
same,inhibitory effects on rounding up of PfPKGT618Q gametocytes,"[5]; 2 μM, stimulation with zaprinast or XA",absence of inhibitory effects
same,rounding up of PfPKGT618Q gametocytes,[5]; [12],rounded up to almost normal levels
same,"RR, relative risk of rounding up, T618Q vs WT",[5]; compound 1 0.1 μM,1.031
same,"RR, relative risk of rounding up, T618Q vs WT",[5]; compound 1 2 μM,1.827
same,"RR, relative risk of rounding up, T618Q vs WT",[5]; compound 1 5 μM,2.248
same,"RR, relative risk of rounding up, T618Q vs WT",[5]; compound 1 6 μM,1.974
same,"RR, relative risk of rounding up, T618Q vs WT",[5]; compound 1 8 μM,1.910
same,"RR, relative risk of rounding up, T618Q vs WT",[5]; compound 1 10 μM,1.649
same,"RR, relative risk of rounding up, T618Q vs WT",[5]; compound 1 20 μM,1.283
same,lower sensitivity of PfPKGT618Q gametocytes than control cells (rounding up),"[5]; range of inhibitor concentrations, approximately",10–20 fold
same,"RR, relative risk of rounding up, T618M vs WT",[6]; compound 1 0.1 μM,1.014
same,"RR, relative risk of rounding up, T618M vs WT",[6]; compound 1 2 μM,1.020
same,"RR, relative risk of rounding up, T618M vs WT",[6]; compound 1 4 μM,0.946
same,"RR, relative risk of rounding up, T618M vs WT",[6]; compound 1 5 μM,1.010
same,"RR, relative risk of rounding up, T618M vs WT",[6]; compound 1 6 μM,1.002
same,"RR, relative risk of rounding up, T618M vs WT",[6]; compound 1 20 μM,0.861
same,difference in sensitivity of PfPKGT618M line compared to control cells,[6]; rounding up and exflagellation,no significant difference in sensitivity
same,inhibition of exflagellation,[7]; gametocytes stimulated with XA or zaprinast,inhibited by compound 1 in a dose-dependent manner; also recorded: inhibited exflagellation in a dose-dependent manner
same,difference in sensitivity of exflagellation between control and PfPKGT618Q cell lines,[7]; unpublished data,no significant difference in sensitivity
same,sensitivity of cGMP-dependent kinase activity in control and mutant lysates,[8],equivalent levels of sensitivity
same,effect on Eimeria infection in chickens,[9],cure
same,effect on infection by T. gondii in mice,[10],cure
same,effect on P. berghei infections in mice,[11],delays the onset
